Reference: ChEMBL document CHEMBL1201862, “PubChem BioAssay data set” (2004)
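Method: 48-hour compound exposure of cells in 96-well plates, five concentrations, linear interpolation of endpoints. The concentration for 50% growth inhibition is given as GI50.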 Active and inactive are the calls of the source. Rule as the data show it: active = GI50 up to about 1.1 µM and inactive = higher.

Columns and labels:
Assay in all cases: NCI-60 cell line screen, 48 h
786-0 = system: 786-0
A498 = system: A498
DMS-114 = system: DMS-114
EKVX = system: EKVX
HOP-62 = system: HOP-62
HOP-92 = system: HOP-92
IGROV-1 = system: IGROV-1
LOX IMVI = system: LOX IMVI
M14 = system: M14
M19-MEL = system: M19-MEL
Malme-3M = system: Malme-3M
SF-268 = system: SF-268
SF-539 = system: SF-539
SK-OV-3 = system: SK-OV-3
SN12C = system: SN12C
TK-10 = system: TK-10
U-251 = system: U-251
UACC-62 = system: UACC-62

Measured: GI50

O=C(NO)C(=O)Nc1cc(Cl)ccc1Cl
inactive: 786-0 > 100 µM | A498 > 100 µM | DMS-114 69.3 µM | EKVX > 100 µM | HOP-62 > 100 µM | HOP-92 69.5 µM | IGROV-1 20.1 µM | LOX IMVI 16.8 µM | M14 > 100 µM | M19-MEL > 100 µM | Malme-3M > 100 µM | SF-268 > 100 µM | SF-539 > 100 µM | SK-OV-3 > 100 µM | SN12C > 100 µM | TK-10 > 100 µM | U-251 > 100 µM | UACC-62 > 100 µM

Cc1cc(Br)cc(C)c1NC(=O)C(=O)C(C(=O)c1ccc2ccccc2c1)C1OC(=O)c2ccccc21 (stereo not drawn)
inactive: 786-0 6.03 µM | A498 12 µM | DMS-114 7.78 µM | EKVX 19.5 µM | HOP-62 12.2 µM | HOP-92 1.58 µM | IGROV-1 18.2 µM | LOX IMVI 12.1 µM | M14 15.6 µM | M19-MEL 12.4 µM | Malme-3M 14.7 µM | SF-268 7.98 µM | SF-539 2.69 µM | SK-OV-3 78.5 µM | SN12C 19.7 µM | TK-10 21.1 µM | U-251 5.78 µM | UACC-62 12.9 µM

Cc1ccc(NC(=O)CCC(=O)C2Cc3ccccc3C2=O)cc1C (stereo not drawn)
inactive: 786-0 > 100 µM | A498 > 100 µM | DMS-114 > 100 µM | EKVX > 100 µM | HOP-62 > 100 µM | HOP-92 > 100 µM | IGROV-1 > 100 µM | LOX IMVI > 100 µM | M14 > 100 µM | M19-MEL > 100 µM | Malme-3M > 100 µM | SF-268 > 100 µM | SF-539 > 100 µM | SK-OV-3 > 100 µM | SN12C > 100 µM | TK-10 > 100 µM | U-251 > 100 µM | UACC-62 > 100 µM

CC(C)(CN1C(=O)C(Cl)=C(Cl)C1=O)CN1C(=O)C(Cl)=C(Cl)C1=O
inactive: 786-0 11.7 µM | A498 28.6 µM | DMS-114 9.75 µM | EKVX 19.9 µM | HOP-62 22.1 µM | HOP-92 7.64 µM | IGROV-1 18.9 µM | LOX IMVI 12.2 µM | M14 16.6 µM | M19-MEL 7.66 µM | Malme-3M 5.74 µM | SF-268 19.1 µM | SF-539 20.1 µM | SK-OV-3 33.3 µM | SN12C 11.7 µM | TK-10 9.02 µM | U-251 18.1 µM | UACC-62 14.1 µM

COc1cc2ccnc(-c3n[nH]c4cc(OC)c(OC)cc34)c2cc1OC
inactive: 786-0 > 100 µM | A498 > 100 µM | DMS-114 > 100 µM | EKVX > 100 µM | HOP-62 > 100 µM | HOP-92 > 100 µM | IGROV-1 > 100 µM | LOX IMVI > 100 µM | M14 > 100 µM | M19-MEL > 100 µM | Malme-3M > 100 µM | SF-268 62.4 µM | SF-539 > 100 µM | SK-OV-3 > 100 µM | SN12C > 100 µM | TK-10 > 100 µM | U-251 > 100 µM | UACC-62 > 100 µM

COc1ccc(CN2C(=O)C(Cc3cc(OC)c(OC)c(C)c3OC)N(C(=O)OC(C)C)C(=O)/C2=C/c2cc(OC)c(OC)c(C)c2OC)cc1 (stereo not drawn)
inactive: 786-0 > 100 µM | A498 > 100 µM | DMS-114 24.9 µM | EKVX 50.8 µM | HOP-62 > 100 µM | HOP-92 > 100 µM | IGROV-1 > 100 µM | LOX IMVI > 100 µM | M14 > 100 µM | M19-MEL > 100 µM | Malme-3M 64.9 µM | SF-268 > 100 µM | SF-539 > 100 µM | SK-OV-3 > 100 µM | SN12C > 100 µM | TK-10 > 100 µM | U-251 > 100 µM | UACC-62 > 100 µM
